Reference: ChEMBL document CHEMBL4052763, “Discovery of dual Axl/VEGF-R2 inhibitors as potential anti-angiogenic and anti-metastatic drugs for cancer chemotherapy” (Bioorg Med Chem Lett, 2017)

How the values were obtained:
Insulin receptor = Insulin receptor (Homo sapiens, UniProt P06213); assay: Inhibition of insulin stimulated INSR phosphorylation in human HeLa cells preincubated for 1 hr followed by insulin addition measured after 5 mins by Western blot analysis; assay type: cell-based
[1] = biological target: Vascular endothelial growth factor receptor 2 (Homo sapiens, UniProt P35968); assay: Inhibition of VEGF stimulated VEGFR2 phosphorylation at […] residues in HUVEC preincubated for 1 hr followed by VEGF addition measured after 5 mins by Western blot analysis
Chain of Vascular endothelial growth factor receptor 2 (P35968 whole entry): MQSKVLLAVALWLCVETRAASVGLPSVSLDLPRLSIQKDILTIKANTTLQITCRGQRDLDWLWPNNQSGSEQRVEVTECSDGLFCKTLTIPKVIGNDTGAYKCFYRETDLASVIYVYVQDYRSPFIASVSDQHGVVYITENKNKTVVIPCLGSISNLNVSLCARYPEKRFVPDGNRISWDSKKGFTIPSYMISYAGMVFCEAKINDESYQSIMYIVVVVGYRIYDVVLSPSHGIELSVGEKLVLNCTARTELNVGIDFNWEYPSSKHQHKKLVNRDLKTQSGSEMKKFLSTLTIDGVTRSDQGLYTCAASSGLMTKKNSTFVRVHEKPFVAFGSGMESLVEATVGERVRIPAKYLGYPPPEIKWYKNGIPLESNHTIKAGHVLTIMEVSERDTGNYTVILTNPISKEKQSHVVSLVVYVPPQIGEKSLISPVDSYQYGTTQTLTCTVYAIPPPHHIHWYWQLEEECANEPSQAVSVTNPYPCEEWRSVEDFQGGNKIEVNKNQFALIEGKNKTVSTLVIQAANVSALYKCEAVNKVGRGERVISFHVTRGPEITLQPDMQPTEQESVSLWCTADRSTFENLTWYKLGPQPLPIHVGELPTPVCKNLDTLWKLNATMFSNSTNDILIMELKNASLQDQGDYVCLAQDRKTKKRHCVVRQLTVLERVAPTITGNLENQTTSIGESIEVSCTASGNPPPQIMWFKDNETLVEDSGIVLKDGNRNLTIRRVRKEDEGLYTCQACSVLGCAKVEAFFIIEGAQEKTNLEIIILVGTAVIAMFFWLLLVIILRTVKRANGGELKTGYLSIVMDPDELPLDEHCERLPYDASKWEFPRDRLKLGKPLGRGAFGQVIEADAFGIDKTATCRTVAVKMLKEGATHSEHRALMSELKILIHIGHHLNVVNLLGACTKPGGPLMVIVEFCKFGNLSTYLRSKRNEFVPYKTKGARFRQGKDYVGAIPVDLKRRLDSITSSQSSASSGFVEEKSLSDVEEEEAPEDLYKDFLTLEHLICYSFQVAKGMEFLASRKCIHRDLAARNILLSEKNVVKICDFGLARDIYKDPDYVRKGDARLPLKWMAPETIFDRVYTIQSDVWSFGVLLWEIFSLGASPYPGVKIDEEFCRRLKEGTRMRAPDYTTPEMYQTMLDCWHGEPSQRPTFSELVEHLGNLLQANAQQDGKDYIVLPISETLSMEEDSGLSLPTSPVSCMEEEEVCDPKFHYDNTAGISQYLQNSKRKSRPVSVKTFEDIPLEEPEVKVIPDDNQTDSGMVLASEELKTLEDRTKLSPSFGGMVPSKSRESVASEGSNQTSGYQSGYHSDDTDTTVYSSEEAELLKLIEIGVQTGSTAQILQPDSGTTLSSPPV

[2] = Clearance in iv dosed Sprague-Dawley rat; assay type: ADME, organism-based; details: in vivo
[3] = Volume of distribution at steady state in iv dosed Sprague-Dawley rat; assay type: ADME, organism-based; details: in vivo, read-out: Vdss
[4] = Half life in iv dosed Sprague-Dawley rat; assay type: ADME, organism-based; details: in vivo
[5] = biological target: T1, Tyrosine-protein kinase receptor UFO (Homo sapiens, UniProt P30530); assay: Inhibition of Axl in human HeLa cells assessed as reduction in AKT phosphorylation at Ser 473 residues pre-incubated for 1 hr before preclustered anti-Axl antibody stimulation by Western blot analysis; assay type: cell-based
T1 sequence (P30530 whole entry): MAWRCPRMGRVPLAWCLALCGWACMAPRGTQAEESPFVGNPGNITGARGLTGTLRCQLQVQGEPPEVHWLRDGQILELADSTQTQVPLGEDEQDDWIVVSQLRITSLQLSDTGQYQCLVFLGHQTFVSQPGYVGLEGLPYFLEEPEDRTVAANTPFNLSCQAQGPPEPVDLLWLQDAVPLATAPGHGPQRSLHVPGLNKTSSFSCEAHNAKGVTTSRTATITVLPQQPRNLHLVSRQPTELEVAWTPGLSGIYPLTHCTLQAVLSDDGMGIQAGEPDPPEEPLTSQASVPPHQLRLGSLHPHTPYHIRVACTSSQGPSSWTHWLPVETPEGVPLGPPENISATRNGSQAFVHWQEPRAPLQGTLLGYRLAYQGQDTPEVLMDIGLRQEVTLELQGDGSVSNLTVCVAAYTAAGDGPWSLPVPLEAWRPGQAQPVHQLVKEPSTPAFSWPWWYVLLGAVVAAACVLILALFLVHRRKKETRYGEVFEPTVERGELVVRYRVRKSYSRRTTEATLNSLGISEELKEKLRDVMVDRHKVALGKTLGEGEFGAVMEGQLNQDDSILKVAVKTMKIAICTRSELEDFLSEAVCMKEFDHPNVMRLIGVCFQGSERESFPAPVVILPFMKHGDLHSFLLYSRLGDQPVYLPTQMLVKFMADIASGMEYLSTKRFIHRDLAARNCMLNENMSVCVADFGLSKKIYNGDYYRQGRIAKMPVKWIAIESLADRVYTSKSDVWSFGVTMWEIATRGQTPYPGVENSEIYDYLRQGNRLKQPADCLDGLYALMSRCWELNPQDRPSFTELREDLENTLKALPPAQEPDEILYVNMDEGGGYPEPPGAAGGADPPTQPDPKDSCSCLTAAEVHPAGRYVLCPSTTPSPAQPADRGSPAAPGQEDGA

[6] = Aqueous solubility of the compound; assay type: physicochemical; details: buffer
[7] = Oral bioavailability in Sprague-Dawley rat; assay type: ADME, organism-based; details: in vivo
MDA-MB-231 [8] = assay: Antitumor activity against human MDA-MB-231 cells xenografted in nu/nu mouse assessed as tumor growth delay at 125 mg/kg, po bid after 21 days relative to control; assay type: functional
CAKI-1 [9] = assay: Antitumor activity against human Caki1 cells xenografted model assessed as tumor growth inhibition at 85 mg/kg, po bid relative to control; assay type: functional; details: CAKI-1, po, read-out: TGI
MDA-MB-231 [10] = assay: Antitumor activity against human MDA-MB-231 cells xenografted in nu/nu mouse assessed as tumor growth inhibition at 85 mg/kg, po bid after 21 days relative to control; assay type: functional; details: MDA-MB-231, po, 504 h, read-out: TGI
MDA-MB-231 [11] = assay: Antitumor activity against human MDA-MB-231 cells xenografted in nu/nu mouse assessed as tumor growth inhibition at 125 mg/kg, po bid after 21 days relative to control; assay type: functional; details: MDA-MB-231, po, 504 h, read-out: TGI
Mus musculus [12] = assay: Inhibition of fibroblast growth factor-induced neovascularization in mouse corneal micropocket at 100 mg/kg, bid relative to control; assay type: functional
Mus musculus [13] = assay: Inhibition of fibroblast growth factor-induced neovascularization in mouse corneal micropocket at 50 mg/kg, bid relative to control; assay type: functional
Mus musculus [14] = assay: Toxicity in nu/nu mouse xenografted with human MDA-MB-231 cells at 125 mg/kg, po bid after 21 days; assay type: organism-based; details: in vivo, 504 h
Mus musculus [15] = assay: Toxicity in nu/nu mouse xenografted with human MDA-MB-231 cells at 85 mg/kg, po bid after 21 days; assay type: organism-based; details: in vivo, 504 h
[16] = biological target: T1, Tyrosine-protein kinase receptor UFO; assay: Inhibition of N-terminal GST-tagged human Axl (464 to 885 end residues) cytoplasmic domain expressed in baculovirus expression system using HS1 peptide as substrate after 40 mins in presence of ATP by fluorescence polarization assay
MDA-MB-231 [17] = assay: Antitumor activity against human MDA-MB-231 cells xenografted in nu/nu mouse assessed as tumor growth inhibition at 80 mg/kg, qd after 21 days relative to control; assay type: functional; details: MDA-MB-231, 504 h, read-out: TGI
CAKI-1 [18] = assay: Antitumor activity against human Caki1 cells xenografted model assessed as tumor growth inhibition at 80 mg/kg, po qd relative to control; assay type: functional; details: CAKI-1, po, read-out: TGI
Mus musculus [19] = assay: Inhibition of fibroblast growth factor-induced neovascularization in mouse corneal micropocket at 80 mg/kg, qd relative to control; assay type: functional

Chain of Insulin receptor (P06213 28-758 limits assumed): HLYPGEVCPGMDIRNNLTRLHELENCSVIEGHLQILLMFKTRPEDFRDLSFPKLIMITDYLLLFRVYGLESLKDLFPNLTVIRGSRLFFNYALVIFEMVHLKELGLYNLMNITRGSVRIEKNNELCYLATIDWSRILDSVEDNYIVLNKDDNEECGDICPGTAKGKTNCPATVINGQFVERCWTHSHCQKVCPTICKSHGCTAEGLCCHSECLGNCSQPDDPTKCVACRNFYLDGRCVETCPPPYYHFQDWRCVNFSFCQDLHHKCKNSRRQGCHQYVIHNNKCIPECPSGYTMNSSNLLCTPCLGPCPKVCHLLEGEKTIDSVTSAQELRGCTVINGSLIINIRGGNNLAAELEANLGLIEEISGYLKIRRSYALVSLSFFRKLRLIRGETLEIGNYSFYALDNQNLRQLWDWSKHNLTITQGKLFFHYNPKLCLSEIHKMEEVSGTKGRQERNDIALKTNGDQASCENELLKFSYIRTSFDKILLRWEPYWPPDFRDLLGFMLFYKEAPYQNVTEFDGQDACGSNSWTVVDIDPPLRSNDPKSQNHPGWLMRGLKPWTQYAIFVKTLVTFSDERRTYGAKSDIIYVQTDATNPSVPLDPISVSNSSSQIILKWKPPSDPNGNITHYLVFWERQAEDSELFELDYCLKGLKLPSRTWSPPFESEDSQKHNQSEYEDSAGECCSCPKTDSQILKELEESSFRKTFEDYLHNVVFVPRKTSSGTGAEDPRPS
Chain of Insulin receptor (P06213 763-1382 limits assumed): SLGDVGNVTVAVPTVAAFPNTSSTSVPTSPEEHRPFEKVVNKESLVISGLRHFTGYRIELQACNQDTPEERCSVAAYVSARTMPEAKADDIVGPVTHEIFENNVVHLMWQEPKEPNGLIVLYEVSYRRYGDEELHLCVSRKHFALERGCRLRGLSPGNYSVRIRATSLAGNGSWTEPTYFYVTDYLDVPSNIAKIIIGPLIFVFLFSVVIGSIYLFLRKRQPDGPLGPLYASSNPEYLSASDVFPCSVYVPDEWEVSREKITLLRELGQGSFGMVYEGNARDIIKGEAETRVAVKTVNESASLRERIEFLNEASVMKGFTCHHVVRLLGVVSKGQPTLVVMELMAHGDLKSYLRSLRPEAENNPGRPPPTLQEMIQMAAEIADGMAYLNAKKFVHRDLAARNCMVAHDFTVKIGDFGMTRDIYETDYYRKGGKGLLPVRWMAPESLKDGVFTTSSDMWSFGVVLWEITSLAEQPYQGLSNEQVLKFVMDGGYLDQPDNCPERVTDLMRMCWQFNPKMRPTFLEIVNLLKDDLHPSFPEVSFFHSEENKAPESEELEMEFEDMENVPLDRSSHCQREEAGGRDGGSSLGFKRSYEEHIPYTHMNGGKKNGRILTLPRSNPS

| SMILES | EC50 (Insulin receptor) | EC50 [1] | EC50 [5] | also measured |
| --- | --- | --- | --- | --- |
| COc1cc2ncnc(-n3nc(Nc4ccc(N5CCN(C6CC7CCC6C7)CC5)c(Cl)c4)nc3N)c2cc1OC (configuration not stated) | > 10000 nM | 47 nM |  | clearance [2]: 117 mL/min/kg; Vd [3]: 27 L/kg; half-life [4]: 2.7 h |
| Cc1nc(-n2nc(Nc3ccc(OCCN4CCCC4)cc3)nc2N)c2ccccc2n1 | 320 nM |  |  |  |
| Nc1nc(Nc2ccc(OCCN3CCCC3)cc2)nn1-c1ncnc2ccc(F)cc12 | 126 nM |  |  |  |
| Nc1nc(Nc2ccc(OCCN3CCCC3)c(F)c2)nn1-c1ccccn1 |  |  | 334 nM |  |
| COc1cc2ncnc(-n3nc(Nc4ccc(N5CCN(C)CC5)cc4)nc3N)c2cc1OC | 4580 nM | 3 nM | 39 nM |  |
| Cc1csc2c(-n3nc(Nc4ccc(N5CCN([C@@H]6C[C@H]7CC[C@@H]6C7)CC5)c(Cl)c4)nc3N)nc(Cl)nc12 |  |  | 216 nM |  |
| Nc1nc(Nc2ccc(OCCN3CCCC3)cc2)nn1-c1ncnc2c1sc1ccccc12 | 300 nM |  |  |  |
| COc1cc2ncnc(-n3nc(Nc4ccc(N5CCN(C6CCCCC6)CC5)c(F)c4)nc3N)c2cc1OC | 5030 nM | 26 nM | 55 nM |  |
| COc1cc2ncnc(-n3nc(Nc4ccc(OCCN5CCCC5)c(Cl)c4)nc3N)c2cc1OC | 4170 nM |  |  |  |
| Nc1nc(Nc2ccc(OCCN3CCCC3)cc2)nn1-c1ncnc2c1CCC2 | 1010 nM |  |  |  |
| Nc1nc(Nc2ccc(OCCN3CCCC3)cc2)nn1-c1ncnc2ccc(Cl)cc12 | 14 nM |  |  |  |
| COc1cc2ncnc(-n3nc(Nc4ccc(N5CC[C@H](N(C)C)C5)cc4)nc3N)c2cc1OC | 4760 nM | 19 nM | 193 nM |  |
| COc1cc2ncnc(-n3nc(Nc4ccc(C5CCN(C)CC5)cc4)nc3N)c2cc1OC | 1320 nM | 14 nM | 16 nM |  |
| Nc1nc(Nc2ccc(OCCN3CCCC3)c(F)c2)nn1C(=O)c1ccc(N2CCOCC2)cc1 | 2750 nM |  | 47 nM | solubility [6]: Insoluble; bioavailability [7]: < 1% |
| COc1cc2ncnc(-n3nc(Nc4ccc(OC5CCCN(C)C5)cc4)nc3N)c2cc1OC (configuration not stated) | 1800 nM | 4 nM | 52 nM |  |
| Cc1csc2c(-n3nc(Nc4ccc(N5CCN([C@H]6C[C@@H]7CC[C@H]6C7)CC5)c(Cl)c4)nc3N)nc(Cl)nc12 |  |  | 136 nM | Activity (MDA-MB-231 [8]): 79%; inhibition in vivo at 85 mg/kg (CAKI-1 [9]): 80%; inhibition in vivo at 85 mg/kg (MDA-MB-231 [10]): 69%; inhibition in vivo at 125 mg/kg (MDA-MB-231 [11]): 83%; inhibition in vivo at 100 mg/kg (Mus musculus [12]): 73%; inhibition in vivo at 50 mg/kg (Mus musculus [13]): 50%; Activity (Mus musculus [14]): Toxic; Activity (Mus musculus [15]): Non-Toxic |
| Nc1nc(Nc2ccc(OCCN3CCCC3)cc2)nn1-c1nc(Cl)nc2ccccc12 | 241 nM |  | 27 nM | IC50 [16]: 7 nM |
| Cc1csc2c(-n3nc(Nc4ccc(OCCN5CCCC5)cc4)nc3N)nc(Cl)nc12 | 582 nM |  |  |  |
| Nc1nc(Nc2ccc(N3CCN(C4CC5CCC4C5)CC3)c(F)c2)nn1-c1ncnc2ccsc12 (racemic) |  |  | 20 nM |  |
| Cc1csc2c(-n3nc(Nc4ccc(N5CCN(C6CC7CCC6C7)CC5)c(F)c4)nc3N)ncnc12 (racemic) |  | 90 nM | 62 nM |  |
| Cc1csc2c(-n3nc(Nc4ccc(N5CCN(C6CC7CCC6C7)CC5)cc4)nc3N)nc(Cl)nc12 (racemic) |  | 65 nM |  | clearance [2]: 11.5 mL/min/kg; Vd [3]: 4.4 L/kg; half-life [4]: 4.9 h |
| Nc1nc(Nc2ccc(N3CCN(C4CC5CCC4C5)CC3)cc2)nn1-c1ncnc2c1sc1ncccc12 (racemic) |  | 24 nM | 52 nM |  |
| Nc1nc(Nc2ccc(N3CCN(C4CC5CCC4C5)CC3)c(Cl)c2)nn1-c1ncnc2sccc12 (racemic) |  | 160 nM | 85 nM |  |
| Cc1nc(-n2nc(Nc3ccc(N4CCN(C5CC6CCC5C6)CC4)cc3)nc2N)c2ccccc2n1 (racemic) |  | 104 nM |  |  |
| Nc1nc(Nc2ccc(N3CCN(C4CC5CCC4C5)CC3)cc2)nn1-c1ncnc2ccc(Cl)cc12 (racemic) |  | 196 nM |  |  |
| CC(C)(C)c1cc2ncnc(-n3nc(Nc4ccc(N5CCN(C6CC7CCC6C7)CC5)c(Cl)c4)nc3N)c2s1 (racemic) |  | 80 nM | 84 nM |  |
| Nc1nc(Nc2ccc(N3CCN(C4CC5CCC4C5)CC3)cc2)nn1-c1ncnc2ccc(F)cc12 (racemic) |  | 146 nM |  | clearance [2]: 44 mL/min/kg; Vd [3]: 7.9 L/kg; half-life [4]: 2.3 h |
| Nc1nc(Nc2ccc(N3CCN(C4CC5CCC4C5)CC3)cc2)nn1-c1ncnc2ccsc12 (racemic) |  | 24 nM | 21 nM |  |
| Nc1nc(Nc2ccc(N3CCN(C4CC5CCC4C5)CC3)cc2)nn1-c1nccc2ccccc12 (racemic) |  |  |  | clearance [2]: 52 mL/min/kg; Vd [3]: 8.8 L/kg; half-life [4]: 2.3 h |
| CCN(CC)CCNC(=O)c1c(C)[nH]c(/C=C2\C(=O)Nc3ccc(F)cc32)c1C [SUNITINIB] |  |  |  | inhibition in vivo at 80 mg/kg (MDA-MB-231 [17]): 84%; inhibition in vivo at 80 mg/kg (CAKI-1 [18]): 85%; inhibition in vivo at 80 mg/kg (Mus musculus [19]): 78% |
